Assay results as given in patent US20200113902A1, “COMPOSITIONS AND METHODS FOR TREATING CANCERS WITH COVALENT INHIBITORS OF CYCLIN-DEPENDENT KINASE 7 (CDK7)” (Syros Pharmaceuticals, Inc., priority 2017, published 2020).

Key:
[1] = test system: MCL1 protein in OC1M1 cells; experiment: Western blot, AML cell line OC1M1; format: cell-based; details: OC1M1 (high BCL-XL); 50 nM
Method: Cytotoxic cancer cell lines HCC70 and TOV21G, and cytostatic cancer cell lines T47D and COV318 were seeded in wells of a six-well dish at a density of 1×10^6 cells/well and allowed to adhere overnight. Cells were then treated with 50 nM of Compound 1 for 16 or 24 hours, or with DMSO (0 hours) representing a negative control. Cells were harvested and placed on ice, and resuspended in RIPA lysis buffer supplemented with protease and phosphatase inhibitors. Clarified lysates prepared with 4×LSD running buffer and boiled at 95° C. for 5 minutes. Equivalent amounts of sample (10 μg total protein) were run on a 4-12% Bis-Tris gel and transferred to a PDVF membrane for Western blotting using standard Western blotting protocols. Membranes were blocked with Licor TBS blocking buffer then probed with antibodies for BCL-XL, BCL-2, MCL1, BID, and GAPDH visualized using and Odyssey imager (FIGS. 23A and 23D).
We next explored the expression of MCL1, BCL-XL and BCL2 in four different AML cell lines. MV411, OCI-AML3 and KG1 cells were separately grown and prepared as described in Example 2 for Western blotting, using antibodies specific for BCL2 (FIG. 24A), BCL-XL, MCL-1 and tubulin as an internal control (FIG. 24B).

leukemic cells = details: leukemic vs non-malignant cells; previously shown; cited from earlier work
HCC70 xenografts = experiment: Subcutaneous HCC70 xenograft, tumor volume; format: in vivo, mouse; details: 40 mg/kg i.v. twice weekly (BIW), vehicle: increase in tumor volume
Method: Subcutaneous HCC70 xenografts were established in BALC/c nude mice at ChemPartner (Shanghai, China). Each mouse was inoculated subcutaneously in the right flank with 5×10^6 HCC70 cells (ATCC, CAT #: CRL-2315) in 0.2 ml of a 1:1 mixture of base medium and Matrigel. Tumor sizes were measured in two dimensions using a caliper, and the volumes were expressed in mm^3 using the formula: V=0.5 a×b^2 where a and b are the longest and shortest diameters of the tumor, respectively. Compound 1 treatment was started when the average tumor size reached 181 mm^3.
Compound 1 was formulated in w/v 20% Captisol (pH 4-6) and administered by i.v. twice weekly (BIW) at a final dose of 40 mg/kg in a 10 ml/kg volume. Mice in the vehicle arm were given the same dosing schedules, volumes, and formulations, but lacking Compound 1. Tumor volumes were measured twice weekly over the course of the study.

[2] = test system: gene expression in HCC70 cells; experiment: Gene expression profiling via RNA-seq (DESeq2, linear model), HCC70; format: cell-based; details: four hours, JQ1 125 nM, Compound 1 25 nM
Method: (§1) In addition, we compared the ability of JQ1 alone, Compound 1 alone, and a combination of JQ1 and Compound 1 to modify expression of various genes in two breast cancer cell lines. Two triple-negative breast cancer cell lines (HCC70 and MDA-MB468) were tested. The cell lines were treated with JQ1, Compound 1, the JQ1/Compound 1 combination, or DMSO for four hours, after which gene expression profiling via RNA-seq was performed. JQ1 was administered to the cells at a 125 nM final concentration in both single agent and combination experiments. Compound 1 was administered to the cells at a 25 nM final concentration in both single agent and combination experiments. Each experiment was performed in triplicate. One replicate of MDA-MB-468 treated with single-agent JQ1 was excluded from further analysis due to quality.
(§2) We employed DESeq2 (Love et al., Genome Biology, 15(12):550, 2014) to identify changes in gene expression due to the JQ1, Compound 1, and JQ1-Compound 1 combination treatment compared to the control DMSO condition based on the RNA-seq data. Genes resulting in a p-value below 0.01 and an absolute logFoldChange above 0.5 were considered to be differentially expressed. […] The same is true for 1459 of 2414 genes in MDA-MB468.
(§3) To identify the genes whose expression is impacted synergistically by the drug combination, we modeled the effect of each drug treatment on expression using a linear model. The expression of each gene after the combination treatment can be thought of as the combined impact of Compound 1, JQ1, and any synergistic interaction between the drug treatments on baseline gene expression. A linear model used to describe this relationship could therefore be represented as:
(§4) Gene Expression after combination treatment=Baseline Expression+Compound 1 effect+JQ1 effect+Combination effect (Synergistic Impact)
(§5) By fitting the expression data for each gene using this model, we were able to evaluate the effect of each treatment, and identify cases where a synergistic interaction between Compound 1 and JQ1 impacts final gene expression. After fitting the linear model to each gene, the weight and p-value of each term can be evaluated. The combination term's weight signifies the mean change resulting from a synergetic impact on expression, with a negative weight indicating synergistic downregulation. Its associated p-value represents the probability that the combination term is not relevant to final gene expression. Using this approach, we identified 1806 genes in HCC70 and 2205 genes in MDA-MB468 whose expression change in the combination treatment was synergistic and whose associated p-value was less than a threshold cutoff of 0.01. The expression of these synergistic genes could not be explained by an additive effect of Compound 1 and JQ1 alone.

BR5015 xenografts = experiment: TNBC patient-derived xenograft BR5015, tumor volume; format: in vivo, mouse; details: 40 mg/kg or 30 mg/kg i.v. BIW
Method: Patient-derived xenograft (PDX) models from TNBC patients (BR5010, BR5013, BR5015, and BR5023) were established in NOD-SCID mice at Crown Bioscience (San Diego, USA). Cryo vials containing tumor cells were thawed and prepared for injection into mice. Cells were washed in PBS, counted, and resuspended in cold PBS at a concentration of 50,000-100,000 viable cells/100 ul. Cell suspensions were mixed with an equal volume of Cultrex ECM and kept on ice during transport to the vivarium. Cells were prepared for injections by withdrawing ECM-Cell mixture into a chilled slip-tip syringe fitted with a 26G 7/8 (0.5 mm×22 mm) needle. The filled syringes were kept on ice to avoid the solidification of ECM. Each mouse was inoculated subcutaneously in the right flank with 200 uL of the cell suspension. Tumor sizes were measured in two dimensions using a caliper, and the volumes were expressed in mm^3 using the formula: V=0.5 a×b^2, where a and b are the longest and shortest diameters of the tumor, respectively. Compound 1 treatment was started when the average tumor size reached 150-200 mm^3.
Compound 1 was formulated in w/v 20% Captisol (pH 4-6) and administered by i.v. twice weekly (BIW) at a final dose of 40 mg/kg or 30 mg/kg in a 10 ml/kg volume. Tumor volumes were measured twice weekly over the course of the study. […]

[3] = test system: gene expression in MDA-MB468 cells; experiment: Gene expression profiling via RNA-seq (DESeq2, linear model), MDA-MB468; format: cell-based; details: four hours, JQ1 125 nM, Compound 1 25 nM
Method: as §1, §2, §3, §4, §5

CN(C)C/C=C/C(=O)Nc1ccc(C(=O)N[C@@]2(C)CCC[C@@H](Nc3ncc(Cl)c(-c4c[nH]c5ccccc45)n3)C2)nc1 [Compound 1, N-((1S,3R)-3-(5-chloro-4-(1H-indol-3-yl)pyrimidin-2-ylamino)-1-methylcyclohexyl)-5-((E)-4-(dimethylamino)but-2-enamido)picolinamide]
MCL1 protein level (Western blot) [1]: little effect
Induction of apoptosis in vitro (leukemic cells): selectively induce apoptosis in leukemic cells relative to non-malignant cells
Tumor volume (HCC70 xenografts): reduction in tumor volume
Average Expression (TPM) GATA3 ([2]; DMSO 32.685): 22.404 TPM
Average Expression (TPM) FOXC1 ([2]; DMSO 40.481): 25.768 TPM
Average Expression (TPM) TGIF1 ([2]; DMSO 62.523): 68.293 TPM
Tumor growth vs untreated historical samples (BR5015 xenografts): little inhibitory effect on tumor growth
Average Expression (TPM) FOXC1 ([3]; DMSO 33.731): 25.556 TPM
Average Expression (TPM) GATA3 ([3]; DMSO 34.244): 21.773 TPM
Average Expression (TPM) TGIF1 ([3]; DMSO 145.88): 134.08 TPM
